Data as given in patent US12054494B2, “Compound with anticancer activity” (KYOWA KIRIN CO., LTD., priority 2018, dated 2024).

System: MYC mRNA expression in SU-DHL-4 cells
Assay: Suppressive effect on MYC mRNA expression (qRT-PCR)
Assay type: cell-based
Settings: test compound 100 nmol/L, 6 hours
Procedure: Suppressive Effect on MYC mRNA Expression
SU-DHL-4 cells were cultured at 37° C. using a carbon dioxide gas incubator (95% air, 5% CO2) in RPMI1640 medium in which FBS in an amount to give a final concentration of 10 vol % and PS in an amount to give a final concentration of 1 vol % were added. The cells were passaged twice a week at a volume of 20-40 mL so as to maintain a cell concentration of 1×10^6 cells/mL or less.
The cultured SU-DHL-4 cells were seeded at 6×10^5 cells/well in a transparent 6-well plate (Code No. 140675, Thermo Fisher Scientific). After seeding, the cells were precultured at 37° C. in a carbon dioxide gas incubator for 18 to 25 hours. Next, a 0.1 mmol/L DMSO solution of the test compound was prepared, diluted so that the concentration will be 200 times the final concentration in the RPMI1640 medium containing the above FBS and PS, and 1/200 volume of the diluted solution was added to each well. At this time, the final concentration of DMSO was adjusted to be 0.1 vol %. After adding the test compound, the cells were cultured at 37° C. in a carbon dioxide gas incubator for 6 hours.
Then, the cells were collected by centrifugation and used for extraction of mRNA. mRNA extraction from cells was performed using Maxwell® 16 LEV simplyRNA Purification Kits (Code No. AS1270, Promega). The mRNA recovery protocol was performed according to the manufacturer's recommended protocol attached to the kit.
0.001 mg of the recovered mRNA was converted to cDNA by SuperScript IV VILO Master Mix with ezDNase Enzyme (Code No. 11766050, Thermo Fisher Scientific). The cDNA conversion was performed, according to the manufacturer's recommended protocol attached to the kit, in 0.020 mL of the reaction solution, and GeneAmp® PCR System 9700 (Applied Biosystems) was used. The cDNA-converted sample was diluted 10-fold by adding 0.180 mL of RNase Free Water (Code No. 10977-023, Thermo Fisher Scientific) and used for quantitative real-time polymerase chain reaction (qRT-PCR). For the calibration curve of qRT-PCR, 0.08 mL of RNase Free Water was added to a cDNA sample using DMSO as a test compound for 5-fold dilution. Further, two 5-fold dilutions were prepared stepwise, and these three samples were used as the calibration curve samples.
The following reagents were used for qRT-PCR: TaqMan Gene Expression Assays, Inventoried (Primer probe: Code No. 4331182, Thermo Fisher Scientific, Assay ID: (i) MYC: Hs00153408_m1, (ii) ACTB: Hs01060665_g1, (iii) GAPDH: Hs04420697_g1, (iv) HPRT1: Hs02800695_m1); 2X TaqManR Fast Universal PCR Master Mix, no AmpEraseR UNG (Master Mix: Code No. 4367846, Thermo Fisher Scientific).
Primer probe (0.001 mL), Master Mix (0.010 mL), water (0.004 mL) and the diluted cDNA sample (0.005 mL) were mixed, and qRT-PCR analysis was performed. For qRT-PCR analysis, QuantStudio 7 Flex (Thermo Fisher Scientific) or 7500 Fast Real-Time PCR (Applied Biosystems) was used to measure in Fast mode and analyze. The expression level of the MYC gene was determined by quantifying ACTB, GAPDH, and HPRT1 as housekeeping genes and correcting by the following formula to calculate the suppression rate of (%) of MYC mRNA expression when the test compound was allowed to act at a concentration of 100 nmol/L. Corrected MYC expression=A/B • A: MYC expression level • B: Geometric mean of expression levels of ACTB, GAPDH and HPRT1
Using the corrected values, the suppression rate of MYC expression for the wells to which […] was calculated by the following formula. Suppression rate of MYC expression (%)=100−C/D×100 • C: Corrected MYC expression level in a well containing test compound • D: Corrected MYC expression level in a well to which test compound was not added

CCC(=O)N1c2ccccc2[C@H](N[C@H]2CC[C@H](NC(=O)C#CCNC(=O)[C@H]3CC[C@H](N[C@@H]4C[C@H](C)N(C(=O)CC)c5ccccc54)CC3)CC2)C[C@@H]1C (relative stereo) [Compound 9d, (1R,4R)-4-(((2S*,4R*)-2-Methyl-1-propionyl-1,2,3,4-tetrahydroquinolin-4-yl)amino)-N-(4-(((1R,4R)-4-(((2S,4R)-2-methyl-1-propionyl-1,2,3,4-tetrahydroquinolin-4-yl)amino)cyclohexyl)amino)-4-oxobut-2-yn-1-yl)cyclohexane-1-carboxamide]
Suppression rate of MYC mRNA expression: 98.0%

CCC(=O)N1c2ccccc2[C@H](NCCCCC(=O)NCc2cn(-c3ccc(N[C@@H]4C[C@H](C)N(C(=O)CC)c5ccccc54)cc3)nn2)C[C@@H]1C (relative stereo) [Compound 12f, 5-(((2S*,4R*)-2-Methyl-1-propionyl-1,2,3,4-tetrahydroquinolin-4-yl)amino)-N-((1-(4-(((2S,4R)-2-methyl-1-propionyl-1,2,3,4-tetrahydroquinolin-4-yl)amino)phenyl)-1H-1,2,3-triazol-4-yl)methyl)pentane amide]
Suppression rate of MYC mRNA expression: 97.9%

CCC(=O)N1c2ccccc2[C@H](Nc2ccc(C(=O)NCCNS(=O)(=O)c3ccc(N[C@@H]4C[C@H](C)N(C(=O)CC)c5ccccc54)cc3)cc2)C[C@@H]1C [Compound 4d, 4-{[(2S,4R)-2-Methyl-1-propionyl-1,2,3,4-tetrahydroquinolin-4-yl]amino}-N-{2-[(4-{[(2S,4R)-2-methyl-1-propionyl-1,2,3,4-tetrahydroquinolin-4-yl]amino}phenyl)sulfonamide]ethyl}benzamide]
Suppression rate of MYC mRNA expression: 98.3%

CCC(=O)N1c2ccccc2[C@H](Nc2ccc(Cn3cc(C(=O)Nc4ccc(N[C@@H]5C[C@H](C)N(C(=O)CC)c6ccccc65)cc4)nn3)cc2)C[C@@H]1C [Compound 5j, 1-(4-(((2S,4R)-2-Methyl-1-propionyl-1,2,3,4-tetrahydroquinolin-4-yl)amino)benzyl)-N-(4-(((2S,4R)-2-methyl-1-propionyl-1,2,3,4-tetrahydroquinolin-4-yl)amino)phenyl)-1H-1,2,3-triazolee-4-carboxamide]
Suppression rate of MYC mRNA expression: 96.8%

CCC(=O)N1c2ccccc2[C@H](Nc2ccc(CCC(=O)NCC3(NC4CCC(N[C@@H]5C[C@H](C)N(C(=O)CC)c6ccccc65)CC4)COC3)cc2)C[C@@H]1C (some centres unmarked) [Compound 7h]
Suppression rate of MYC mRNA expression: 97.5%

CCC(=O)N1c2ccccc2[C@H](Nc2ccc(NC(=O)CCCC(=O)NC3CCC(N[C@@H]4C[C@H](C)N(C(=O)CC)c5ccccc54)CC3)cc2)C[C@@H]1C (stereo partly drawn) [Compound 7o, N^1-((1R,4r)-4-(((2S,4R)-2-Methyl-1-propionyl-1,2,3,4-tetrahydroquinolin-4-yl)amino)cyclohexyl)-N^5-(4-(((2S,4R)-2-methyl-1-propionyl-1,2,3,4-tetrahydroquinolin-4-yl)amino)phenyl)glutaramide]
Suppression rate of MYC mRNA expression: 97.4%

CCC(=O)N1c2ccccc2[C@H](Nc2ccc(NC(=O)N3CCN(C(=O)C4CCC(N[C@@H]5C[C@H](C)N(C(=O)CC)c6ccccc65)CC4)CC3)cc2)C[C@@H]1C (stereo partly drawn) [Compound 7p, 4-((1R,4r)-4-(((2S,4R)-2-Methyl-1-propionyl-1,2,3,4-tetrahydroquinolin-4-yl)amino)cyclohexane-1-carbonyl)-N-(4-(((2S,4R)-2-methyl-1-propionyl-1,2,3,4-tetrahydroquinolin-4-yl)amino)phenyl)piperazine-1-carboxamide]
Suppression rate of MYC mRNA expression: 97.9%

CCC(=O)N1c2ccccc2[C@H](Nc2ccc(-c3nnc(CNC(=O)[C@H]4CC[C@H](N[C@@H]5C[C@H](C)N(C(=O)CC)c6ccccc65)CC4)o3)cc2)C[C@@H]1C [Compound 7q, (1R,4R)-4-(((2S,4R)-2-Methyl-1-propionyl-1,2,3,4-tetrahydroquinolin-4-yl)amino)-N-((5-(4-(((2S,4R)-2-methyl-1-propionyl-1,2,3,4-tetrahydroquinolin-4-yl)amino)phenyl)-1,3,4-oxadiazol-2-yl)methyl)cyclohexane-1-carboxamide]
Suppression rate of MYC mRNA expression: 97.4%

CCC(=O)N1c2ccccc2[C@H](Nc2ccc(NC(=O)CNC(=O)N[C@H]3CC[C@H](N[C@@H]4C[C@H](C)N(C(=O)CC)c5ccccc54)CC3)cc2)C[C@@H]1C [Compound 8j, 2-(3-((1R,4R)-4-(((2S,4R)-2-Methyl-1-propionyl-1,2,3,4-tetrahydroquinolin-4-yl)amino)cyclohexyl)ureido)-N-(4-(((2S,4R)-2-methyl-1-propionyl-1,2,3,4-tetrahydroquinolin-4-yl)amino)phenyl)acetamide]
Suppression rate of MYC mRNA expression: 97.2%

CCC(=O)N1c2ccccc2[C@H](Nc2ccc(C(=O)N3CC(C(=O)N[C@H]4CC[C@H](N[C@@H]5C[C@H](C)N(C(=O)CC)c6ccccc65)CC4)C3)cc2)C[C@@H]1C [Compound 8r, 1-(4-(((2S,4R)-2-Methyl-1-propionyl-1,2,3,4-tetrahydroquinolin-4-yl)amino)benzoyl)-N-((1R,4R)-4-(((2S,4R)-2-methyl-1-propionyl-1,2,3,4-tetrahydroquinolin-4-yl)amino)cyclohexyl)azetidine-3-carboxamide]
Suppression rate of MYC mRNA expression: 96.7%

CCC(=O)N1c2ccccc2[C@H](Nc2ccc(NC(=O)CCCC(=O)NC3CCN(Cc4cc(O)cc(-c5c(C)noc5C)c4)CC3)cc2)C[C@@H]1C [Compound 12c, N^1-(1-(3-(3,5-Dimethylisoxazol-4-yl)-5-hydroxybenzyl)piperidinyl)-N^5-(4-(((2S,4R)-2-methyl-1-propionyl-1,2,3,4-tetrahydroquinolin-4-yl)amino)phenyl)glutaramide]
Suppression rate of MYC mRNA expression: 97.8%

CCC(=O)N1c2ccccc2[C@H](Nc2ccc(C(=O)NCCCNC(=O)c3ccc(C4=N[C@@H](CC(=O)OC5CCC(O)CC5)c5nnc(C)n5-c5sc(C)c(C)c54)cc3)cc2)C[C@@H]1C (stereo partly drawn) [Compound 13d, 4-Hydroxycyclohexyl 2-((S)-2,3,9-trimethyl-4-(4-((3-(4-(((2S,4R)-2-methyl-1-propionyl-1,2,3,4-tetrahydroquinolin-4-yl)amino)benzamide)propyl)carbamoyl)phenyl)-6H-thieno[3,2-f][1,2,4]triazolo[4,3-a][1,4]diazepin-6-yl)acetate]
Suppression rate of MYC mRNA expression: 97.2%

CCC(=O)N1c2ccccc2[C@H](Nc2ccc(C(=O)NCCCNC(=O)c3ccc(C4=N[C@@H](CC(=O)OCCCOC)c5nnc(C)n5-c5sc(C)c(C)c54)cc3)cc2)C[C@@H]1C [Compound 13h, 3-Methoxypropyl 2-((S)-2,3,9-trimethyl-4-(4-((3-(4-(((2S,4R)-2-methyl-1-propionyl-1,2,3,4-tetrahydroquinolin-4-yl)amino)benzamide)propyl)carbamoyl)phenyl)-6H-thieno[3,2-f][1,2,4]triazolo[4,3-a][1,4]diazepin-6-yl)acetate]
Suppression rate of MYC mRNA expression: 97.4%

CCC(=O)N1c2ccccc2[C@H](Nc2ccc(NC(=O)CCCC(=O)Nc3ccc(Cn4c(C(=O)OCCN(C)C)cc5c4CCCC5=O)cc3)cc2)C[C@@H]1C [Compound 15a, 2-(Dimethylamino)ethyl 1-(4-(5-((4-(((2S,4R)-2-methyl-1-propionyl-1,2,3,4-tetrahydroquinolin-4-yl)amino)phenyl)amino)-5-oxopentanamide)benzyl)-4-oxo-4,5,6,7-tetrahydro-1H-indole-2-carboxylate]
Suppression rate of MYC mRNA expression: 97.6%
